Data on six molecules can be found in paper PMC12310481, “Sequence, characterization and pharmacological analyses of the adipokinetic hormone receptor in the stick insect, Carausius morosus” (Frontiers in Endocrinology, 2025).

Where “and” joins values, the source holds several entries; their conditions need not be identical. Identical values can stand only once. Non-standard residues stand in square brackets, D forms with d. Residues, ends and D or L forms follow the SMILES beside them. pGlu = O=C1CC[C@@H](C(=O)O)N1

The term EC50 denotes the concentration needed to bring the measured effect to its halfway point.

The test system of assay [1] is endogenously expressed purinoceptors. The assay can be described thus: ATP positive control in the bioluminescence assay. It is filed as cell-based, Chinese hamster. The settings on record: 50 μM ATP. How it is done:
Synthetic peptide stocks of naturally-occurring AKH-related peptides [corazonin, adipokinetic hormone corazonin-like peptide (ACP)], alanine-substituted analogs of Carmo-HrTH-II, natural C. morosus AKH peptides, and several AKHs from other arthropod species in synthetic form were used for preparation of serial dilutions all of which were prepared in assay media (DMEM-F12 media containing 0.1% bovine serum albumin, 1X antimycotic-antibiotic) and loaded in triplicate or quadruplicate into 96-well white luminescence plates (Greiner Bio-One, Germany). Cells stably expressing Carmo-AKHR and transiently expressing aequorin were loaded with an automated injector unit into each individual well containing different test compounds at various concentrations, including assay media alone (negative control wells) and 50 μM ATP (positive control wells) acting on endogenously expressed purinoceptors ([34], [35]). Immediately after injection of the cells into each well, luminescence was measured for 20 s using a Synergy 2 Multi-Mode Microplate Reader (BioTek, Winooski, VT, USA). […] Data were analyzed using a one-way or two-way ANOVA and Tukey’s multiple comparisons post-hoc test, with differences between treatments considered significant if p<0.05.

Assay [2] relates to Carausius morosus AKH receptor (Carmo-AKHR). The assay can be described thus: Calcium bioluminescence (aequorin) reporter assay, CHO-K1 cells stably expressing Carmo-AKHR. It is filed as cell-based. To be noted: for EC50: CHO-K1 stably expressing Carmo-AKHR, transiently aequorin, luminescence measured 20 s, from dose-response activation curves, 3 to 4 independent biological replicates, normalized to ATP maximum, read-out: EC50 value; for Fold-reduction in activity (receptor activation relative to Carmo-HrTH-II): ratio of EC50 relative to Carmo-HrTH-II. On the procedure: Functional activation of Carmo-AKHR was carried out by following mammalian cell culture procedures as previously described ([20], [29]) with the following modifications. […] At 24 h post-transfection, cells were selected in DMEM:F12 media containing 10% heat-inactivated fetal bovine serum (Wisent, St. Bruno, QC), 1x antimycotic-antibiotic and 600 μg/mL geneticin (G418) until clonal recombinant cells were evident in transfected cells while no live cells were present in non-transfected CHO-K1 cells (control). Individual clonal recombinant colonies were seeded into separate wells of a 96 well cell-culture dish (Sarstedt Inc., Montreal, QC) and grown to confluence while maintaining geneticin selection. To identify clonal recombinant lines with optimal Carmo-AKHR activity yielding the greatest signal-to-noise ratio, individual clonal recombinant lines were assayed in the bioluminescence reporter assay as described previously ([30]). […] The recombinant cell line showing the optimal luminescent response with greatest signal-to-noise ratio was expanded for preparation of cryo-stocks and subsequent detailed investigation of receptor specificity. […] Bruno, QC), 250 μg/mL Geneticin (MilliporeSigma Canada Ltd., Oakville, ON) and 1X antimycotic-antibiotic (ThermoFisher Scientific, Whitby, ON). […] Transfection was completed with PolyJetTM DNA In Vitro Transfection Reagent (FroggaBio, Toronto, ON) following manufacturer recommendations for transfection of adherent cells. At 48 hours post-transfection, cells were detached from culture flasks using Dulbecco's PBS (Wisent, St. Bruno, QC) containing 5 mM Ethylenediaminetetraacetic acid (EDTA) and were prepared for the functional assay as previously described ([30]). […] Immediately after injection of the cells into each well, luminescence was measured for 20 s using a Synergy 2 Multi-Mode Microplate Reader (BioTek, Winooski, VT, USA). […] Data were analyzed using a one-way or two-way ANOVA and Tukey's multiple comparisons post-hoc test, with differences between treatments considered significant if p<0.05.
On the technique in general: A reporter such as luciferase makes a cellular process visible.

For assay [3] the test system is unchanged. It is filed as cell-based. To be noted: transient Carmo-AKHR, co-expressing murine promiscuous G protein.
For another assay, the system named is Carausius morosus. To be noted: in vivo bioassay, stick insect; cited from earlier work. The text has this:
C. morusus produces decapeptide AKHs that function optimally via the Carmo-AKHR. Two shorter bioanalogs with high identity to Carmo-HrTH were available for testing in the receptor activation assay: Triin-AKH, an amidated nonapeptide that ends in Gly^9 and the amidated octapeptide, Peram-CAH-II that ends in Trp^8. These peptides produced receptor activation curves with EC50 values similar to those of the endogenous AKH peptides ( Table 2 ). Taken on its own, this may indicate that the C-terminal amino acids of Carmo-HrTH (thus Thr^10 and Gly^9) are not critical for activation of Carmo-AKHR, and ... || Replacing the aromatic amino acids, Phe^4 or Trp^8 that are iconic for most natural members of the AKH family, with a nonpolar amino acid like Ala, completely abolished receptor activation in the current in vitro study. Earlier in vivo investigations on L. migratoria ([58]), as well as AKH/RPCH ligand-receptor model studies on S. gregaria and D. pulex made it clear that these two aromatic residues are critical for receptor binding ([55], [56]). […] Clearly, this position in the AKH ligand appear ...

In the case of `Nc1ncnc2c1ncn2[C@@H]1O[C@H](COP(=O)(O)OP(=O)(O)OP(=O)(O)O)[C@@H](O)[C@H]1O` [ATP], the Maximal luminescent response entry in assay [1] is on record as “about 12 000”.
Take `CC(C)C[C@H](NC(=O)[C@@H]1CCC(=O)N1)C(=O)N[C@H](C(=O)N[C@@H](Cc1ccccc1)C(=O)N[C@H](C(=O)N1CCC[C@H]1C(=O)N[C@@H](CO)C(=O)N[C@@H](Cc1c[nH]c2ccccc12)C(N)=O)[C@@H](C)O)[C@@H](C)O` [Aedae-AKH] ([pGlu]LTFTPSW-NH2): in assay [2], the EC50 amounted to 1.03 µM; the “Fold-reduction in activity (receptor activation relative to Carmo-HrTH-II)” value is 14 fold and 14.00 fold. Besides, the “Luminescence relative to assay media (BSA) alone” value in assay [3] is ~ 3 fold.
Regarding `CC(C)C[C@H](NC(=O)[C@@H]1CCC(=O)N1)C(=O)N[C@@H](CC(N)=O)C(=O)N[C@@H](Cc1ccccc1)C(=O)N[C@H](C(=O)N1CCC[C@H]1C(=O)N[C@@H](CC(N)=O)C(=O)N[C@@H](Cc1c[nH]c2ccccc12)C(=O)NCC(=O)N[C@H](C(N)=O)[C@@H](C)O)[C@@H](C)O` [Locmi-AKH-I] ([pGlu]LNFTPNWGT-NH2), the “Hypertrehalosemic effect in vivo (in words)” value (from here on “Hypertrehalosemic effect”) in the assay on Carausius morosus is on record as “biological function is impaired”. Moreover, the EC50 in assay [2] is 4.14 µM.
For the molecule `CC(C)C[C@H](NC(=O)[C@@H]1CCC(=O)N1)C(=O)N[C@H](C(=O)N[C@@H](Cc1ccccc1)C(=O)N[C@H](C(=O)N1CCC[C@H]1C(=O)N[C@@H](CC(N)=O)C(=O)N[C@@H](Cc1c[nH]c2ccccc12)C(N)=O)[C@@H](C)O)[C@@H](C)O` [Peram-CAH-II] ([pGlu]LTFTPNW-NH2), the “Hypertrehalosemic effect” value with Carausius morosus is “only about a third of what the native decapeptide achieved”. For the same molecule, in assay [2], the EC50 worked out at 0.388 µM; the “Fold-reduction in activity (receptor activation relative to Carmo-HrTH-II)” value is 5 fold and 5.28 fold.
Regarding `CC(C)C[C@H](NC(=O)[C@@H]1CCC(=O)N1)C(=O)N[C@H](C(=O)N[C@@H](Cc1ccccc1)C(=O)N[C@H](C(=O)N1CCC[C@H]1C(=O)N[C@@H](CC(N)=O)C(=O)N[C@@H](Cc1c[nH]c2ccccc12)C(=O)NCC(=O)N[C@@H](CO)C(N)=O)[C@@H](C)O)[C@@H](C)O` [Phyle-CC] ([pGlu]LTFTPNWGS-NH2), the “Hypertrehalosemic effect” value in the assay with Carausius morosus was “not at all (in vivo) affected”. In assay [2], the EC50 was 0.018 µM and the “Fold-reduction in activity (receptor activation relative to Carmo-HrTH-II)” value came to 0.24 fold.
Turning to `CC(C)C[C@H](NC(=O)[C@@H]1CCC(=O)N1)C(=O)N[C@@H](CC(N)=O)C(=O)N[C@@H](Cc1ccccc1)C(=O)N[C@H](C(=O)N1CCC[C@H]1C(=O)N[C@@H](CC(N)=O)C(=O)N[C@@H](Cc1c[nH]c2ccccc12)C(=O)NCC(=O)N[C@@H](CO)C(N)=O)[C@@H](C)O` [Phymo-AKH] ([pGlu]LNFTPNWGS-NH2), the “Hypertrehalosemic effect” value in the assay on Carausius morosus is recorded as “absence of function in vivo”. Further, in assay [2], the EC50 turned out to be 5.05 µM and the “Fold-reduction in activity (receptor activation relative to Carmo-HrTH-II)” value came out at 68.66 fold.
